From PMC7835349 (Communications Biology, 2021)
Values joined by “and” are separate entries in the source; they are usually repeats but may differ in a detail not shown here. Equal entries are not always repeated. “Also recorded” adds a separate entry of the source.

Legend:
RS4;11 xenograft = assay: RS4;11 mouse xenograft efficacy (tumour volume); type: in vivo, C.B-17 SCID mouse; design: key to tumour volume, individual animals: tumour volume in mm³, length × width²/0.52; conditions: for tumour volume, individual animals: 20 mg/kg AZD4320
Experimental: Female C.B.−17 SCID mice were purchased from Charles River Laboratories. Mice were 5–8 weeks old at the time of tumour implantation. All xenograft studies were conducted at our Association for the Assessment and Accreditation of Laboratory Animal Care accredited facility in Waltham, MA in accordance with ethical regulations described in the guidelines established by the internal Institutional Animal Care and Use Committee. The dendrimer conjugates were formulated in citrate/phosphate buffer pH 5.0, diluted 1:10 with 5% glucose containing 1% w/v Kolliphor HS15, and AZD4320 was formulated in 30% HP-β-CD and dosed as a weekly intravenous (IV) administration at a volume of 5 ml/kg at the indicated doses. Five million RS4;11, five million SUDHL-4 or five million OCI-LY-10 cells were injected subcutaneously in the right flank of mice in a volume of 0.1 ml. Tumour volumes (measured by caliper), animal body weight, and tumor condition were recorded twice weekly for the duration of the study. The tumour volume was calculated (taking length to be the longest diameter across the tumour and width to be the corresponding perpendicular diameter) using the formula: length (mm) x width (mm)^2/0.52. For efficacy studies, mice were randomized based on tumour volumes using stratified sampling and enrolled into control and treatment groups. Tumour growth inhibition from the start of treatment was quantified by measuring the difference in tumour volume between control and treated groups. Survival analysis was evaluated using Mantel-Cox test. Tumours were also taken for bioanalysis.

telemetered rats = assay: Conscious rat telemetry (QRS amplitude, blood pressure, tolerability); conditions: telemetered rat; AZD4320 10 mg/kg, conjugates 30 mg/kg IV;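 note: male Han Wistar rats carrying implanted telemetry transmitters, with ECG and arterial pressure recorded continuously while unrestrained in their home cage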
Excerpt: Male Han Wistar rats were implanted with HD‐S11 transmitters (Data Sciences International, St. Paul, MN USA) under isoflurane anaesthesia, the telemetry transmitter was placed in the peritoneal cavity, the arterial blood pressure catheter was placed in the terminal abdominal aorta and the ECG electrodes were sutured, one at the dorsal surface of the xiphoid process and one at the anterior mediastinum, close to the right atrium[42]. Animals were allowed to recover for at least 2 weeks and were around 2–3 months at the time of experimentation. The animals were pair‐housed in standard rat cages with a non‐instrumented companion throughout the study. Cages were prepared with bedding material and enrichment.
Telemetry recordings took place in the home cage. […] The animals were removed from the cage temporarily for dosing and blood sampling. Animals were not subject to restraint except where dosing and blood sampling was performed. Data acquisition used Dataquest Open A.R.T.™ with HEM software version 4.2 (Notocord Inc).
For evaluation of AZD4320, n = 8 rats received single doses of 0 (vehicle: 30% Kleptose, pH9) or 10 mg/kg AZD4320, administered as a 30-min intravenous infusion. A cross-over study design was used, with an interval of 7 days between treatments.
Data for all parameters were collected continuously during the recording period. The continuous data from each animal was binned into chosen time intervals of varying length and averaged to generate a single data point for each reported nominal time. Each reported nominal timepoint was then averaged across each of the animals tested for each dose level.

AZD4320-MIDA-PEG2100 [AZD0466] was tested. Which “tumour volume, individual animals” value (RS4;11 xenograft; Day 38, listed as SPL-8977, 20 mg/kg, in mm³ (unit assumed)) did it give?
The value was 600 and 609 and 679 and 641.

What about the “tumour volume, individual animals” value (RS4;11 xenograft; Day 41, listed as SPL-8977, 20 mg/kg, in mm³ (unit assumed)) of the same substance?
The value was 419 and 480 and 364 and 544.

And the “tumour volume, individual animals” value (RS4;11 xenograft; Day 45, listed as SPL-8977, 20 mg/kg)?
Its value is 0 (2×) and 133 and 130.

And the “tumour volume, individual animals” value (RS4;11 xenograft; Day 48, listed as SPL-8977, 20 mg/kg)?
Its value is 0 (3×) and 75.

What about the “tumour volume, individual animals” value (RS4;11 xenograft; Day 52, listed as SPL-8977, 20 mg/kg) of the same substance?
Its value is 0 (3×) and 134.

What about the “tumour volume, individual animals” value (RS4;11 xenograft; Day 55, in mm³ (unit assumed)) of the same substance?
The value was 0.

And the “tumour volume, individual animals” value (RS4;11 xenograft; Day 59, listed as SPL-8977, 20 mg/kg)?
The value was 0 (2×) and 122 and 66.

And the “tumour volume, individual animals” value (RS4;11 xenograft; Day 63, listed as SPL-8977, 20 mg/kg, in mm³ (unit assumed))?
The value was 275 and 244 and 0 and 343.

And the “tumour volume, individual animals” value (RS4;11 xenograft; Day 66, listed as SPL-8977, 20 mg/kg, in mm³ (unit assumed))?
Its value is 255 and 188 and 196 and 333.

And the “tumour volume, individual animals” value (RS4;11 xenograft; Day 69, listed as SPL-8977, 20 mg/kg, in mm³ (unit assumed))?
Its value is 384 and 259 and 193 and 637.

What about the “tumour volume, individual animals” value (RS4;11 xenograft; Day 73, listed as SPL-8977, 20 mg/kg, in mm³ (unit assumed)) of the same substance?
Its value is 574 and 450 and 240 and 837.

And the “AZD4320-equivalent dose of dendrimer conjugate needed to match efficacy of AZD4320” value (RS4;11 xenograft; RS4;11)?
The value was “approximately twice the dose”.

And the “magnitude of in vivo efficacy” value (RS4;11 xenograft; RS4;11, 20 mg/kg AZD4320 equivalent dose vs SPL-8932 20 mg/kg equivalent and AZD4320 10 mg/kg)?
The value was “comparable to that of SPL-8932 and AZD4320”.

What about the “Tumour volume, Geo Mean” value (RS4;11 xenograft; RS4;11, AZD0466 10 mg/kg (3mg/kg AZD4320), day 41) of the same substance?
The value was 492.913.

And the “Tumour volume, Geo Mean” value (RS4;11 xenograft; RS4;11, AZD0466 10 mg/kg (3mg/kg AZD4320), day 44)?
Its value is 317.328.

And the “Tumour volume, Geo Mean” value (RS4;11 xenograft; RS4;11, AZD0466 10 mg/kg (3mg/kg AZD4320), day 48)?
Its value is 5.078.

And the “Tumour volume, Geo Mean” value (RS4;11 xenograft; RS4;11, AZD0466 10 mg/kg (3mg/kg AZD4320), day 51)?
The value was 2.414.

What about the “Tumour volume, Geo Mean” value (RS4;11 xenograft; RS4;11, AZD0466 10 mg/kg (3mg/kg AZD4320), day 55) of the same substance?
The value was 1.

What about the “Tumour volume, Geo Mean” value (RS4;11 xenograft; RS4;11, AZD0466 10 mg/kg (3mg/kg AZD4320), day 58) of the same substance?
The value was 49.5834.

What about the “Tumour volume, Geo Mean” value (RS4;11 xenograft; RS4;11, AZD0466 10 mg/kg (3mg/kg AZD4320), day 63) of the same substance?
Its value is 177.592.

And the “Tumour volume, Geo Mean” value (RS4;11 xenograft; RS4;11, AZD0466 10 mg/kg (3mg/kg AZD4320), day 66)?
Its value is 258.58.

And the “Tumour volume, Geo Mean” value (RS4;11 xenograft; RS4;11, AZD0466 10 mg/kg (3mg/kg AZD4320), day 70)?
The value was 353.377.

What about the “Tumour volume, Geo Mean” value (RS4;11 xenograft; RS4;11, AZD0466 10 mg/kg (3mg/kg AZD4320), day 73) of the same substance?
The value was 450.085.

And the “Tumour volume, Geo Mean” value (RS4;11 xenograft; RS4;11, AZD0466 10 mg/kg (3mg/kg AZD4320), day 77)?
Its value is 770.449.

And the “Tumour volume, Geo Mean” value (RS4;11 xenograft; RS4;11, AZD0466 10 mg/kg (3mg/kg AZD4320), day 80)?
The value was 703.796.

What about the “Tumour volume, Geo Mean” value (RS4;11 xenograft; RS4;11, AZD0466 10 mg/kg (3mg/kg AZD4320), day 83) of the same substance?
Its value is 919.497.

What about the “Tumour volume, Geo Mean” value (RS4;11 xenograft; RS4;11, AZD0466 34 mg/kg (10mg/kg AZD4320), day 41) of the same substance?
Its value is 491.258.

And the “Tumour volume, Geo Mean” value (RS4;11 xenograft; RS4;11, AZD0466 34 mg/kg (10mg/kg AZD4320), day 44)?
The value was 242.554.

What about the “Tumour volume, Geo Mean” value (RS4;11 xenograft; RS4;11, AZD0466 34 mg/kg (10mg/kg AZD4320), day 48) of the same substance?
Its value is 1.95.

What about the “Tumour volume, Geo Mean” value (RS4;11 xenograft; RS4;11, AZD0466 34 mg/kg (10mg/kg AZD4320), day 51) of the same substance?
Its value is 1.

And the “Tumour volume, Geo Mean” value (RS4;11 xenograft; RS4;11, AZD0466 34 mg/kg (10mg/kg AZD4320), day 55)?
The value was 1.

And the “Tumour volume, Geo Mean” value (RS4;11 xenograft; RS4;11, AZD0466 34 mg/kg (10mg/kg AZD4320), day 58)?
Its value is 1.

And the “Tumour volume, Geo Mean” value (RS4;11 xenograft; RS4;11, AZD0466 34 mg/kg (10mg/kg AZD4320), day 63)?
Its value is 24.9155.

What about the “Tumour volume, Geo Mean” value (RS4;11 xenograft; RS4;11, AZD0466 34 mg/kg (10mg/kg AZD4320), day 66) of the same substance?
Its value is 88.4785.

And the “Tumour volume, Geo Mean” value (RS4;11 xenograft; RS4;11, AZD0466 34 mg/kg (10mg/kg AZD4320), day 70)?
The value was 55.1235.

And the “Tumour volume, Geo Mean” value (RS4;11 xenograft; RS4;11, AZD0466 34 mg/kg (10mg/kg AZD4320), day 73)?
The value was 52.3606.

What about the “Tumour volume, Geo Mean” value (RS4;11 xenograft; RS4;11, AZD0466 34 mg/kg (10mg/kg AZD4320), day 77) of the same substance?
The value was 71.4432.

What about the “Tumour volume, Geo Mean” value (RS4;11 xenograft; RS4;11, AZD0466 34 mg/kg (10mg/kg AZD4320), day 80) of the same substance?
Its value is 194.327.

And the “Tumour volume, Geo Mean” value (RS4;11 xenograft; RS4;11, AZD0466 34 mg/kg (10mg/kg AZD4320), day 83)?
Its value is 206.49.

What about the “Tumour volume, Geo Mean” value (RS4;11 xenograft; RS4;11, AZD0466 103 mg/kg (30mg/kg AZD4320), day 41) of the same substance?
The value was 495.68.

And the “Tumour volume, Geo Mean” value (RS4;11 xenograft; RS4;11, AZD0466 103 mg/kg (30mg/kg AZD4320), day 44)?
The value was 271.066.

What about the “Tumour volume, Geo Mean” value (RS4;11 xenograft; RS4;11, AZD0466 103 mg/kg (30mg/kg AZD4320), day 48) of the same substance?
The value was 1.967.

What about the “Tumour volume, Geo Mean” value (RS4;11 xenograft; RS4;11, AZD0466 103 mg/kg (30mg/kg AZD4320), day 51) of the same substance?
Its value is 1.

And the “Tumour volume, Geo Mean” value (RS4;11 xenograft; RS4;11, AZD0466 103 mg/kg (30mg/kg AZD4320), day 55)?
Its value is 1.

What about the “Tumour volume, Geo Mean” value (RS4;11 xenograft; RS4;11, AZD0466 103 mg/kg (30mg/kg AZD4320), day 58) of the same substance?
The value was 1.

What about the “Tumour volume, Geo Mean” value (RS4;11 xenograft; RS4;11, AZD0466 103 mg/kg (30mg/kg AZD4320), day 63) of the same substance?
Its value is 5.6048.

And the “Tumour volume, Geo Mean” value (RS4;11 xenograft; RS4;11, AZD0466 103 mg/kg (30mg/kg AZD4320), day 66)?
The value was 13.7221.

What about the “Tumour volume, Geo Mean” value (RS4;11 xenograft; RS4;11, AZD0466 103 mg/kg (30mg/kg AZD4320), day 70) of the same substance?
The value was 40.3244.

And the “Tumour volume, Geo Mean” value (RS4;11 xenograft; RS4;11, AZD0466 103 mg/kg (30mg/kg AZD4320), day 73)?
The value was 44.9682.

What about the “Tumour volume, Geo Mean” value (RS4;11 xenograft; RS4;11, AZD0466 103 mg/kg (30mg/kg AZD4320), day 77) of the same substance?
The value was 64.9706.

What about the “Tumour volume, Geo Mean” value (RS4;11 xenograft; RS4;11, AZD0466 103 mg/kg (30mg/kg AZD4320), day 80) of the same substance?
The value was 64.3873.

And the “Tumour volume, Geo Mean” value (RS4;11 xenograft; RS4;11, AZD0466 103 mg/kg (30mg/kg AZD4320), day 83)?
Its value is 200.25.

What about the “animals remaining tumour free for up to 6 weeks” value (RS4;11 xenograft; RS4;11, highest dose (30 mg/kg AZD4320-equivalent)) of the same substance?
The value was 2/6.

And the “regression during treatment period” value (RS4;11 xenograft; RS4;11, weekly IV, 10 mg/kg and 30 mg/kg AZD4320-equivalent)?
Its value is “Complete tumour regression”.

What about the “tumour regression” value (RS4;11 xenograft; RS4;11, weekly IV, 3, 10 and 30 mg/kg AZD4320-equivalent dose, each dose group) of the same substance?
The value was “tumour regression in all 6 mice”.

What about the “effect on QRS amplitude” value (telemetered rats) of the same substance?
The value was “no effect on QRS amplitude; also recorded: no reduction in QRS amplitude; also recorded: negligible effect on QRS amplitude”.
